Structures can show the parent of a compound that is named as a salt.
Key:
5-HT6 receptor [1] = target: T1, 5-HT6 receptor (Homo sapiens (Human), UniProt P50406); test: competitive radioligand binding ([3H] Lysergic acid diethylamide) to serotonin 5-HT6 receptors, HeLa cell membranes; settings: read-out: IC50, competitive assay of serotonin 5-HT6 receptor inhibition; displacement of 1.5 nM [3H] Lysergic acid diethylamide, 120 min at 37° C.
Protocol: Determination of activity of the compounds of the general formula 1 in the setting of competitive binding to serotonin 5-HT6 receptors.
Screening of the disclosed compounds for their potential ability to interact with serotonin 5-HT6 receptors was carried out by method of radioligand binding. For this purpose membrane species were prepared from expressing recombinant human 5-HT6 receptors HeLa cells by means of their homogenization in glass homogenizer with subsequent separation of plasmatic membranes from cell nucli, mitochondria's and cell wreckages by differential centrifugation. Determination of tested compounds binding to 5-HT6 receptors was carried out according to the method described in [Monsma F J Jr, Shen Y, Ward R P, Hamblin M W and Sibley D R, Cloning and expression of a novel serotonin receptor with high affinity for tricyclic psychotropic drugs. […] After incubation the samples were filtered in vacuo on glass-microfiber filters G/F (Millipor, USA), filters were washed three times with cold solution of the medium and radioactivity was measured by scintillation counter MicroBeta 340 (PerkinElmer, USA). Nonspecific binding which made up 30% of overall binding was determined by incubation of membrane preparations with radioligand in the presence of 5 μM Serotonin (5-HT). Methiothepin was used as positive control. Binding of the tested compounds to the receptor was determined by their ability to displace the radioligand and expressed in percent of displacement. The percent of displacement was calculated according to the following equation:
[formula] wherein: TA—was overall radioactivity in the presence of radioligand only, CA—was radioactivity in the presence of radioligand and tested compound and NA—was radioactivity in the presence of radioligand and Serotonin (5 μM).

5-HT6 receptor [2] = target: T1, 5-HT6 receptor; test: functional assay for serotonin 5-HT6 receptor inhibition (serotonin-induced intracellular cAMP, LANCE cAMP kit, HEK 293 cells); format: cell-based; settings: HEK 293 cells with expressed 5-HT6 receptor; reduction of serotonin-induced intracellular cAMP
Protocol: Determination of antagonistic activity of compounds of the general formula 1 towards 5-HT6 receptors. Compounds of the general formula 1 were tested for their ability to prevent 5-HT6 receptors activation by serotonin. HEK 293 cells (cells of human embryo's kidney) with artificially expressed 5-HT6 receptor, activation of which by serotonin leads to increasing the concentration of intracellular cAMP, were used. The level of intracellular cAMP was determined using reagent kit LANCE cAMP (PerkinElmer) according to the method described by the manufacturer of the kit [http://las.perkinelmer.com/content/Manuals/MAN_LANCEcAMP384KitUser.pdf]. Effectiveness of the compounds was estimated by their ability to reduce the level of intracellular cAMP induced by serotonin. Table 4 presents IC50 values for the compounds of general formula 1 in the setting of functional assay for serotonin 5-HT6 receptor inhibition. The data given testify their moderate or high antagonistic activity.

male mice of BALB/c line = test: Mice Behavior in the Elevated Plus Maze; format: in vivo, mouse; settings: for anxiolytic activity in the elevated plus maze: tested compounds i.p., FIG. 14-16
Protocol: Anxiolytic activity of compounds 1.1(11), 1.2.7(1), 1.2.6(1), 1.2.3(1), 1.2.11(1), 1.2.22(1), 1.2.22(18) in test “Mice Behavior in the Elevated Plus Maze”. The experiments were carried out in aged male mice of BALB/c line weighing about 25 g. The animals were housed 5-7 per cage with water and food available. None of the animals was acquainted with the experimental set-up before. Each experimental group included 8 animals.
The procedure used was described earlier by Lister (Lister R. G. The use of a plus-maze to measure anxiety in the mouse. Psychopharmacology, 1987; 92:180-185). Plexiglass set-up consisted of two opened arms of 30×5 cm size and two closed arms of 30×5×15 cm size. Side arms were closed with transparent plexiglass and were connected with the central zone via a platform of 5×5 cm size. The opened arms, central platform and floor were made of black plexiglass. The set-up was mounted on a metallic base which was placed 38.5 cm above the floor level.
The animals were injected intraperitoneally with placebo, Buspirone (5 mg/kg, 30 minutes before training), Lorazepam (0.05 mg/kg, 60 minutes before training) or with one of the tested compounds 1.1(11), 1.2.7(1), 1.2.6(1), 1.2.3(1), 1.2.11(1), 1.2.22(1), 1.2.22(18). Buspirone and Lorazepam were introduced in a maximal effective dose, at which side sedative effect and general decrease of exploratory activity (the number of arm entries during the test) were not observed yet.
Each mouse was placed in the maze center with its head towards the opened arm. Over a period of 5 minutes the sequence and duration of arm entries were registered by means of a computer program. Criterion for entry is a location of all animal's paws inside the arm at the same time. The index of preference was calculated as a ratio of the time spent by the animal in the opened arms as well as the number of entries into the opened arms to the total time spent by it in the opened and closed arms or, respectively, to the whole number of entries to the arms of both types. The number of defecations left by a mouse was regarded as an additional parameter characterizing the anxiety state. Being in normal state the animals usually avoid open arms (the preference index is between 0.2 and 0.3).

male mice of SHK line = test: Novel object recognition test, Scopolamine amnesia model; format: in vivo, mouse; settings: Scopolamine 1 mg/kg i.p.
Protocol: 14.1.2. Novel object recognition test. The test was carried out in aged male mice of SHK line. […] A mouse was placed into the central chamber and allowed to explore the maze. The floor was cleaned after each animal. The sequence of chamber entries and duration of visits were registered by the observer. The test was ended after 13 entries into the dead-end chambers. Criterion for entry was a location of all animal's paws inside the chamber at the same time.
During the training the animal was placed in the maze with one equiform bowl in each side chamber. In the course of testing (one hour after training) two opposite standing bowls were replaced by identical flasks, and the animal was allowed to explore the maze. The time spent by the animal in each side chamber was registered during the periods of training and testing. Index of novel object recognition was calculated as the ratio of time spent by the animal in the side chambers with novel objects to the total time spent by it in all side chambers.

Mice of SHK line = test: Prepulse inhibition of the startle response in mice (Apomorphine model); format: in vivo, mouse; settings: 1 mg/kg i.p. 60 minutes before the test; FIG. 17
Protocol: Mice of SHK line weighing about 24-30 g were used in the test. The experiments were carried out during the light period of animal's diurnal. Apomorphine hydrochloride and Haloperidol were received from Sigma Chemicals Company, (USA). Apomorphine hydrochloride was dissolved in 0.1% solution of ascorbic acid prepared with sterilized water; it was introduced subcutaneously 15 minutes before the test. Haloperidol was dissolved in sterilized water using emulsifier Twin 80, it was introduced intraperitoneally 60 minutes before the test. Compounds 1.2.22(1), 1.2.22(18), 1.2.7(1) were dissolved in sterilized water and introduced intraperitoneally 60 minutes before the test. The injection volume was 10 ml/kg. 0.1%. Solution of ascorbic acid, prepared with sterilized water and Twin 80, was injected to control group of animals.
The test instrument consisted of a chamber made of transparent plexiglass (manufacturer—Columbia Instruments Company, USA) and placed on the platform; the latter was lodged inside the sound insulating chamber. A high frequency sound column transmitting acoustic stimuluses was located 2 cm away from the platform. […] The level of background noise made up 65 dB. Each animal received 4 stimuli of single testing (pulse) stimulus of 50 ms duration and 105 dB or prepulsory stimulus (pre-pulse) of 20 ms duration and 85 dB, after which in 30 ms pulse stimulus of 50 ms duration and 105 dB followed. Time interval between repeated pulse or prepulse in combination with pulse stimuli made up 10 s. Inhibition of the startle in reply to prepulse-plus-pulse stimulus was calculated in percentage towards amplitude of startle in response to isolated pulse stimulus.

rats = test: Passive avoidance in the shuttle chamber, amnesia caused by MK-801, rats; format: in vivo, rat; settings: MK-801 0.1 mg/kg i.p., compounds injected 60 minutes before the test, FIG. 8-10
male rats = test: Passive avoidance in the shuttle chamber, Scopolamine amnesia model, rats; format: in vivo, rat; settings: compounds injected 60 minutes before the test, read 24 hours after training, FIG. 1-3
Protocol: 14.1.1. Passive Avoidance of mice in the Shuttle Chamber. The experiments were carried out in aged male mice of BALB/c line weighing 20-24 g or male rats weighing 200-250 g.
A shuttle chamber (Ugo Basile, Italy) that consisted of two sections was used. One section was white and lightened, the other one was dark. The sections were connected through a hole which could be overlapped by automatic vertical door. The floor of the dark section was made of transverse metal bars on which DC current impulses could be fed.
On the first day of testing 30 minutes before training the animals were injected intraperitoneally with Scopolamine which causes disturbance of training (memory loss). The animals of the trial group were additionally administered with one of the tested compounds. The animals of the control group were injected with physiological solution. Each group consisted of 8 animals. The animals were placed in the light section, and latent period of the first entry into the dark chamber was registered. Then vertical door was closed and the animal was punished by 0.6 mA DC current for 3 seconds. After that the animal was taken back to its home cage. […]

[3] = compounds i.p. 60 minutes before training, FIG. 7

T1 sequence (P50406 whole entry): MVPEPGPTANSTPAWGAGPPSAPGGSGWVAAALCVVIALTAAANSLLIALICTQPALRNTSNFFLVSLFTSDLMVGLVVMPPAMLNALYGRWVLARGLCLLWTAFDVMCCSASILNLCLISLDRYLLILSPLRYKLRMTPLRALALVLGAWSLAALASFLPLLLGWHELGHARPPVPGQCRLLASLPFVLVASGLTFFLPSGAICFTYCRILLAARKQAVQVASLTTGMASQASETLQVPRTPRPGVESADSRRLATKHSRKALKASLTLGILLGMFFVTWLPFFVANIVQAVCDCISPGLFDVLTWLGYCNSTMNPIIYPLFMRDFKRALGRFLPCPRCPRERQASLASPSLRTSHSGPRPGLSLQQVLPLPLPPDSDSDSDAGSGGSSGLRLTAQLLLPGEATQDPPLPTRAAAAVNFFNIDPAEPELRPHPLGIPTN

CNc1nn2c(OC)cc(-c3cccnc3)nc2c1S(=O)(=O)c1ccccc1 [1.2.10(3), 2-methylamino-7-methoxy-5-(pyridin-3-yl)-3-phenylsulfonyl-pyrazolo[1,5-a]pyrimidine]
IC50 (5-HT6 receptor [1]): < 0.01 µM | IC50 (5-HT6 receptor [2]): 0.012 µM

CNc1nn2c(N)cc(C)nc2c1S(=O)(=O)c1ccccc1 [1.2.11(1), 7-amino-5-methyl-2-methylamino-3-phenylsulfonyl-pyrazolo[1,5-a]pyrimidine]
IC50 (5-HT6 receptor [1]): 0.000293 µM | anxiolytic activity in the elevated plus maze (male mice of BALB/c line): anxiolytic activity analogous to the activity of control compounds | IC50 (5-HT6 receptor [2]): 0.012 µM

CNc1nn2c(NCCN(C)C)cc(C)nc2c1S(=O)(=O)c1ccccc1 [1.2.12(3), 7-(2-dimethylamino)ethylamino-5-methyl-2-methylamino-3-phenylsulfonyl-pyrazolo[1,5-a]pyrimidine]
IC50 (5-HT6 receptor [1]): 0.0699 µM | IC50 (5-HT6 receptor [2]): 1.55 µM

CNc1nn2c(N3CCN(C)CC3)cc(C)nc2c1S(=O)(=O)c1ccccc1 [1.2.12(4).HCl]
IC50 (5-HT6 receptor [1]): 0.00419 µM | IC50 (5-HT6 receptor [2]): 0.173 µM

CNc1nn2c(C)c(CCC(=O)N(C)CCN(C)C)c(C)nc2c1S(=O)(=O)c1ccccc1 [1.2.19(2).HCl]
IC50 (5-HT6 receptor [1]): 0.174 µM | IC50 (5-HT6 receptor [2]): 1.68 µM

CNc1nn2c(C)c(CCC(=O)N(C)CCCN(C)C)c(C)nc2c1S(=O)(=O)c1ccccc1 [1.2.19(3).HCl]
IC50 (5-HT6 receptor [1]): 0.291 µM | IC50 (5-HT6 receptor [2]): 2.28 µM

CNc1nn2c(C)c(CCC(=O)N3CCN(C)CC3)c(C)nc2c1S(=O)(=O)c1ccccc1 [1.2.19(4).HCl]
IC50 (5-HT6 receptor [1]): 0.306 µM | IC50 (5-HT6 receptor [2]): 6.06 µM

CNc1nn2c(C)c(N)c(C)nc2c1S(=O)(=O)c1ccccc1.Cl [1.2.22(1), 6-amino-5,7-dimethyl-2-methylamino-3-phenylsulfonyl-pyrazolo[1,5-a]pyrimidine]
prevention of Scopolamine-disturbed novel object recognition (male mice of SHK line; [3]): prevent memory impairment caused by Scopolamine | effect on Apomorphine-disturbed prepulse inhibition of startle (Mice of SHK line): prevented disturbance of prepulse inhibition of startle caused by Apomorphine | effect on amnesia caused by MK-801 (latent period, light arm stay, dark arm entries) (rats): decrease amnesia caused by MK-801

CNc1nn2c(C)c(N)c(C)nc2c1S(=O)(=O)c1ccccc1 [1.2.22(1).HCl]
IC50 (5-HT6 receptor [1]): 0.00067 µM | IC50 (5-HT6 receptor [2]): 0.0113 µM

CNc1nn2c(C)c(CN)c(C)nc2c1S(=O)(=O)c1ccccc1 [1.2.22(2).HCl]
IC50 (5-HT6 receptor [1]): 0.00056 µM | IC50 (5-HT6 receptor [2]): 0.009 µM

CNc1nn2c(C)c(CCN)c(C)nc2c1S(=O)(=O)c1ccccc1 [1.2.22(3).HCl]
IC50 (5-HT6 receptor [1]): 0.000645 µM | IC50 (5-HT6 receptor [2]): 0.045 µM

CNc1nn2c(C)c(CN)c(C)nc2c1S(=O)(=O)c1cccc(Cl)c1 [1.2.22(5).HCl]
IC50 (5-HT6 receptor [1]): 0.000227 µM | IC50 (5-HT6 receptor [2]): 0.01 µM

CNc1nn2c(C)c(N(C)C)c(C)nc2c1S(=O)(=O)c1ccccc1 [1.2.22(18)]
prevention of Scopolamine-disturbed novel object recognition (male mice of SHK line; [3]): prevent memory impairment caused by Scopolamine | effect on Apomorphine-disturbed prepulse inhibition of startle (Mice of SHK line): prevented disturbance of prepulse inhibition of startle caused by Apomorphine | anxiolytic activity in the elevated plus maze (male mice of BALB/c line): anxiolytic activity analogous to the activity of control compounds | effect on amnesia caused by Scopolamine (latent period, light arm stay, dark arm entries) (male rats): decrease amnesia | effect on amnesia caused by MK-801 (latent period, light arm stay, dark arm entries) (rats): decrease amnesia caused by MK-801

O=C1CC2(CCCC2)CC(=O)N1CCCCN1CCN(c2ncccn2)CC1 [Buspirone, reference compound]
anxiolytic effect in the elevated plus maze (male mice of BALB/c line; Buspirone 5 mg/kg i.p., 30 minutes before training): well-marked anxiolytic effect

Cc1ccc2c(c1)c1c(n2CCc2ccc(C)nc2)CCN(C)C1 [Dimebon, reference compound]
prevention of Scopolamine-disturbed novel object recognition (male mice of SHK line; Dimebon 0.1 mg/kg i.p. 5 minutes before training): prevented

O=C(CCCN1CCC(O)(c2ccc(Cl)cc2)CC1)c1ccc(F)cc1 [Haloperidol, reference compound]
effect on Apomorphine-disturbed prepulse inhibition of startle (Mice of SHK line): prevented disturbance of prepulse inhibition of startle caused by Apomorphine

O=C1Nc2ccc(Cl)cc2C(c2ccccc2Cl)=NC1O (stereo not drawn) [Lorazepam, reference compound]
anxiolytic effect in the elevated plus maze (male mice of BALB/c line; Lorazepam 0.05 mg/kg i.p., 60 minutes before training): well-marked anxiolytic effect

Nc1c2c(nc3ccccc13)CCCC2 [Tacrine, reference compound]
prevention of Scopolamine-disturbed novel object recognition (male mice of SHK line; Tacrine 10 mg/kg i.p. 30 minutes before training): prevented

From patent US8618114B2 (priority 2008, dated 2013)
